Results as given in US20180008637A1, “NATURAL KILLER CELLS AND USES THEREOF” (ANTHROGENESIS CORPORATION, priority 2014, published 2018).

Test system: CD34+ cells
Test: Three-stage method with SR-1 or CH223191 in Stage 1 and Stage 2 media: NK cell expansion, purity, cytotoxicity
Assay type: cell-based
Conditions: for effects on fold expansion, cell purity (CD56+CD3−), and cytotoxicity of K562 cells at a 10:1 (E:T) ratio: SR-1 and CH223191 compared at 10 μM and 1 μM
Protocol: CD34^+ cells are cultured in the following medium formulations for the indicated number of days, and aliquots of cells are taken for assessment of cell count, cell viability, characterization of natural killer cell differentiation and functional evaluation.
Stage 1 medium: 90% Stem Cell Growth Medium (SCGM) (CellGro®), 10% Human Serum-AB, supplemented with 4.5 U/mL low molecular weight heparin (LMWH), 25 ng/mL recombinant human thrombopoietin (TPO), 25 ng/mL recombinant human Flt3L, 27 ng/mL recombinant human stem cell factor (SCF), 25 ng/mL recombinant human IL-7, 0.05 ng/mL recombinant human IL-6 (500-fold), 0.25 ng/mL recombinant human granulocyte colony-stimulating factor (G-CSF) (50-fold), 0.01 ng/mL recombinant human granulocyte-macrophage colony-stimulating factor (GM-CSF) (500-fold), 0.10% gentamicin, and 1 to 10 μm StemRegenin-1 (SR-1).
Stage 2 medium: 90% SCGM, 10% Human Serum-AB, supplemented with 4.5 U/mL low molecular weight heparin (LMWH), 25 ng/mL recombinant human Flt3L, 27 ng/mL recombinant human SCF, 25 ng/mL recombinant human IL-7, 20 ng/mL recombinant human IL-15, 0.05 ng/mL recombinant human IL-6 (500-fold), 0.25 ng/mL recombinant human G-CSF (50-fold), 0.01 ng/mL recombinant human GM-CSF (500-fold), 0.10% gentamicin, and 1 to 10 μm SR1.
Stemregenin-1 (SR-1) was evaluated as a component of Stage 1 and Stage 2 media using the three-stage method outlined in Example 1, above, at concentrations of 1 μM, 10 μM, and 30 μM. The same concentrations of CH223191 in the three-stage method were also evaluated.

SMILES	effects on fold expansion, cell purity (CD56+CD3−), and cytotoxicity of K562 cells at a 10:1 (E:T) ratio	cytotoxicity of the NK cells produced (SR-1 at 10 μM versus 1 μM and 30 μM in Stage 1 and Stage 2 media)
Cc1ccccc1/N=N/c1ccc(NC(=O)c2ccnn2C)c(C)c1 [CH223191, 1-methyl-N-(2-methyl-4-(2-(2-methylphenyl)diazenyl)phenyl)-1H-pyrazole-5-carboxamide]	Comparable effects	
CC(C)n1cnc2c(NCCc3ccc(O)cc3)nc(-c3csc4ccccc34)nc21 [SR-1, 4-(2-(2-(benzo[b]thien-3-yl)-9-isopropyl-9H-purin-6-ylamino)ethyl)phenol]	Comparable effects	higher cytotoxicity than the other two concentrations tested
